What follows are compounds tested against T1, Murine PKD1 kinase domain (Mus musculus, UniProt Q62101) (assay: PKD1 (Murine Kinase Domain) Enzyme Activity Assay (IMAP fluorescence polarisation)). Conditions: 10 μM ATP, 60 minutes, room temperature.
T1 construct: hexahistidine (pFastBac HTb leader) (N); made in house; host or cells: Sf9 insect cells, baculovirus (Bac-to-Bac HT, pFastBac HTb)
T1 sequence (Q62101 with tags, fused parts or gaps R683W): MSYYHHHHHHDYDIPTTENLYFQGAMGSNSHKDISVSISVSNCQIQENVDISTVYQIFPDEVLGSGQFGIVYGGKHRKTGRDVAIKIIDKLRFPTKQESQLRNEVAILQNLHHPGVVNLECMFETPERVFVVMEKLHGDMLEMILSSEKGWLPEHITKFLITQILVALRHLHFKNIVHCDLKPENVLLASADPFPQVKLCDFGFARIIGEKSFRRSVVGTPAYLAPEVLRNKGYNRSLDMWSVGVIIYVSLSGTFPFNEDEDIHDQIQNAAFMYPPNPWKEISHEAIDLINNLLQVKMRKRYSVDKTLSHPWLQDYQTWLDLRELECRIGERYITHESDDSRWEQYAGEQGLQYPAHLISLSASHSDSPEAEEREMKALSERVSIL
Format: biochemical
From the text: The DNA sequence corresponding to murine PKD1 (see FIG. 1) was inserted into pFastBAc Htb (Invitrogen, USA) at BamH1 and EcoR1 sites using standard molecular biology techniques.
The PKD1 described above was expressed as a hexahistidine tagged protein construct using a commercially available baculoviral expression system that induces protein production in insect cell culture (Bac-to-Bac® HT Baculovirus Expression System, Invitrogen). Protein was typically expressed by inoculating 1 L of sf9 cells with a genetically modified baculovirus containing the gene for the kinase domain of PKD1. Sf9 cells were obtained from ICR Ltd.
Purification of PKD1 was achieved by standard chromatographic procedures. Capture from crude centrifuged lysed cell supernatant was achieved using metal affinity chromatography (GE Healthcare Life Sciences, HiTrap Chelating chromatography column), and fractions showing PKD1 (as assessed by gel electrophoresis and western blot) were further purified by a single polish purification step performed using a mono Q anion exchange chromatography system (GE Healthcare Life Sciences, HiTrap HP Q column). […] This protocol describes the method for screening compounds as inhibitors of Protein Kinase D activity in a 384 well microplate format fluorescence polarisation IMAP assay performed using the Biomek FX.
Kinase Enzyme: Murine PKD1 kinase domain at ˜100 μg/mL, was purified from baculovirus (as described above), obtained from aliquots stored at −70° C. PKD was prepared with a final concentration of 0.1 μg/mL by diluting 1:300 in Reaction Buffer (30 μL per 9 mL-5 mL per plate with an additional 4 mL dead volume) and vortexing prior to use. It was necessary to check this concentration regularly in case of enzyme degradation.
(also known as MAPKAP K2 substrate) was obtained from Molecular Devices (Product code R7127). It was used at 300 nM by diluting 20 μM stock 1:66 in Kinase/Reaction Buffer (135 μL per 9 mL; 75 μL per 5 mL Reaction Buffer for blank wells requiring <1 mL per place with an additional 4 mL dead volume).
A 1 mM ATP stock in Reaction Buffer was prepared from a 10 mM stock in 20 mM NaOH and stored as aliquots at −70° C. It was used at 40 μM by diluting 1 mM stock 1:25 in Reaction Buffer (240 μL per 6 mL-2 mL per plate with an additional 4 mL dead volume) and vortexing prior to use.
IMAP Reagents: IMAP Binding Reagent (product code R7207) and Binding Buffer (product code R7208) were obtained from Molecular Devices and stored at +4° C. The beads were gently re-suspended before diluting by 1:400 in buffer (Binding Buffer is supplied as a 5× stock and so was diluted with water prior to use) and then vortexing before addition to wells. 16 mL water with 4 mL Binding Buffer and 50 μL Binding Reagent were used per plate (17 mL per plate with an additional 3 mL dead volume).
13 μL Substrate in Reaction Buffer was added to ‘blank’ wells to give 200 nM reaction concentration. […] 2 μL 10% DMSO/water was added to ‘blank’ and ‘control’ wells. 5 μL ATP in Reaction Buffer was added to all wells to give 10 μM reaction concentration. The reaction mixture was then incubated at room temperature for 60 minutes. The incubation period was followed by the addition of 40 μL IMAP Binding Reagent in Binding Buffer to all wells. The reaction was then further incubated at room temperature for […].
Percentage inhibition was calculated based on activity of the test sample minus the average values in the blank wells relative to the average values measured in control wells minus the average values in the blank wells.
IC50 values were calculated from 10 point dose sigmoid ‘dose-response’ curves using Xlfit software (IDBS inc, USA). Data were fitted to a 4 parameter logistic model/sigmoidal dose response:
where: A=fit minimum (locked to 0); B=fit maximum (locked to 100); C=fit midpoint (pre-fit to 1); D=slope at linear portion of curve, hillslope (pre-fit to 0.1)

Compound	IC50 [nM]
COc1cccc(-c2cncc(-c3cccc(C(=O)NCCCN(C)C)c3)n2)c1 [X-001, N-(3-Dimethylamino-propyl)-3-[6-(3-methoxy-phenyl)-pyrazin-2-yl]-benzamide]	1000 to 10000
COc1ccccc1-c1cncc(-c2cccc(C(=O)NCCN(C)C)c2)n1 [X-002, N-(2-Dimethylamino-ethyl)-3-[6-(2-methoxy-phenyl)-pyrazin-2-yl]-benzamide]	1000 to 10000
COc1cc(-c2cncc(-c3cccc(C(=O)NCCN(C)C)c3)n2)cc(OC)c1OC [X-003, N-(2-Dimethylamino-ethyl)-3-[6-(3,4,5-trimethoxy-phenyl)-pyrazin-2-yl]-benzamide]	1000 to 10000
CN(C)CCCNC(=O)c1cccc(-c2cncc(-c3ccc(O)cc3)n2)c1 [X-004, N-(3-Dimethylamino-propyl)-3-[6-(4-hydroxy-phenyl)-pyrazin-2-yl]-benzamide]	< 1000
CN(C)CCNC(=O)c1cccc(-c2cncc(-c3ccc(CO)cc3)n2)c1 [X-005, N-(2-Dimethylamino-ethyl)-3-[6-(4-hydroxymethyl-phenyl)-pyrazin-2-yl]-benzamide]	< 1000
CC(=O)Nc1cccc(-c2cncc(-c3cccc(C(=O)NCCCN(C)C)c3)n2)c1 [X-006, 3-[6-(3-Acetylamino-phenyl)-pyrazin-2-yl]-N-(3-dimethylamino-propyl)-benzamide]	< 1000
CN1CCN(C(=O)c2cccc(-c3cnc(N)c(-c4cccc5c4oc4ccccc45)n3)c2)CC1 [X-008, [3-(5-Amino-6-dibenzofuran-4-yl-pyrazin-2-yl)-phenyl]-(4-methyl-piperazin-1-yl)-methanone]	< 1000
COc1cc(-c2cncc(-c3cccc(C(=O)N4CCNCC4)c3)n2)ccc1O [X-010, {3-[6-(4-Hydroxy-3-methoxy-phenyl)-pyrazin-2-yl]-phenyl}-piperazin-1-yl-methanone]	1000 to 10000
CN(C)CCNC(=O)c1cccc(-c2cnc(N)c(-c3cccc4c3oc3ccccc34)n2)c1 [X-012, 3-(5-Amino-6-dibenzofuran-4-yl-pyrazin-2-yl)-N-(2-dimethylamino-ethyl)-benzamide]	< 1000
CN(C)CCNC(=O)c1cccc(-c2cncc(-c3cccc4c3oc3ccccc34)n2)c1 [X-013, 3-(6-Dibenzofuran-4-yl-pyrazin-2-yl)-N-(2-dimethylamino-ethyl)-benzamide]	< 1000
COc1ccccc1-c1nc(-c2cccc(C(=O)NCCN(C)C)c2)cnc1N [X-015, 3-[5-Amino-6-(2-methoxy-phenyl)-pyrazin-2-yl]-N-(2-dimethylamino-ethyl)-benzamide]	1000 to 10000
COc1cc(-c2nc(-c3cccc(C(=O)NCCN(C)C)c3)cnc2N)ccc1F [X-016, 3-[5-Amino-6-(4-fluoro-3-methoxy-phenyl)-pyrazin-2-yl]-N-(2-dimethylamino-ethyl)-benzamide]	< 1000
COc1cc(-c2cncc(-c3cccc(C(N)=O)c3)n2)ccc1O [X-018, 3-[6-(4-Hydroxy-3-methoxy-phenyl)-pyrazin-2-yl]-benzamide]	1000 to 10000
COc1cc(-c2cncc(-c3cccc(C(=O)NC4CCN(C)CC4)c3)n2)ccc1O [X-019, 3-[6-(4-Hydroxy-3-methoxy-phenyl)-pyrazin-2-yl]-N-(1-methyl-piperidin-4-yl)-benzamide]	< 1000
COc1cc(-c2cncc(-c3cccc(C(=O)NCCN)c3)n2)ccc1O [X-021, N-(2-Amino-ethyl)-3-[6-(4-hydroxy-3-methoxy-phenyl)-pyrazin-2-yl]-benzamide]	< 1000
CCN(CC)CCNC(=O)c1cccc(-c2cncc(-c3ccc(O)c(OC)c3)n2)c1 [X-022, N-(2-Diethylamino-ethyl)-3-[6-(4-hydroxy-3-methoxy-phenyl)-pyrazin-2-yl]-benzamide]	< 1000
CN(C)CCNC(=O)c1cccc(-c2cnc(N)c(-c3ccc4cc(O)ccc4c3)n2)c1 [X-023, 3-[5-Amino-6-(6-hydroxy-naphthalen-2-yl)-pyrazin-2-yl]-N-(2-dimethylamino-ethyl)-benzamide]	< 1000
COc1cc(-c2nc(-c3cccc(C(=O)NCCN(C)C)c3)cnc2N)ccn1 [X-024, 3-[5-Amino-6-(2-methoxy-pyridin-4-yl)-pyrazin-2-yl]-N-(2-dimethylamino-ethyl)-benzamide]	< 1000
COc1ccc2cc(-c3nc(-c4cccc(C(=O)NCCN(C)C)c4)cnc3N)ccc2c1 [X-025, 3-[5-Amino-6-(6-methoxy-naphthalen-2-yl)-pyrazin-2-yl]-N-(2-dimethylamino-ethyl)-benzamide]	< 1000
COc1cccc(-c2nc(-c3cccc(C(=O)NCCN(C)C)c3)cnc2N)c1 [X-026, 3-[5-Amino-6-(3-methoxy-phenyl)-pyrazin-2-yl]-N-(2-dimethylamino-ethyl)-benzamide]	< 1000
CCN(CC)CCNC(=O)c1cccc(-c2cnc(N)c(-c3cccc(OC)c3)n2)c1 [X-027, 3-[5-Amino-6-(3-methoxy-phenyl)-pyrazin-2-yl]-N-(2-diethylamino-ethyl)-benzamide]	< 1000
COc1cc(-c2cc(-c3cccc(C(N)=O)c3)cnc2N)ccc1O [Y-001, 3-[6-Amino-5-(4-hydroxy-3-methoxy-phenyl)-pyridin-3-yl]-benzamide]	< 1000
COc1ccccc1-c1cc(-c2cccc(C(N)=O)c2)cnc1N [Y-002, 3-[6-Amino-5-(2-methoxy-phenyl)-pyridin-3-yl] benzamide]	1000 to 10000
COc1ccccc1-c1cc(-c2cccc(C(=O)N3CCN(C)CC3)c2)cnc1N [Y-003, {3-[6-Amino-5-(2-methoxy-phenyl)-pyridin-3-yl]-phenyl}-(4-methyl-piperazin-1-yl)-methanone]	1000 to 10000
COc1cc(-c2cc(-c3cccc(C(=O)N4CCN(C)CC4)c3)cnc2N)ccc1O [Y-004, {3-[6-Amino-5-(4-hydroxy-3-methoxy-phenyl)-pyridin-3-yl]-phenyl}-(4-methyl-piperazin-1-yl)-methanone]	1000 to 10000
COc1cc(-c2cc(-c3cccc(C(=O)NCCN(C)C)c3)cnc2N)ccn1 [Y-005, 3-(2-Amino-2′-methoxy-[3,4′]bipyridinyl-5-yl)-N-(2-dimethylamino-ethyl)-benzamide]	< 1000
CN(C)CCNC(=O)c1cccc(-c2cnc(N)c(-c3ccc(Cl)nc3)c2)c1 [Y-006, 3-(2-Amino-6′-chloro-[3,3′]bipyridinyl-5-yl)-N-(2-dimethylamino-ethyl)-benzamide]	1000 to 10000
CN(C)CCNC(=O)c1cccc(-c2cnc(N)c(-c3ccc(O)nc3)c2)c1 [Y-007, 3-(2-Amino-6′-hydroxy-[3,3′]bipyridinyl-5-yl)-N-(2-dimethylamino-ethyl)-benzamide]	< 1000
COc1ccc(-c2cc(-c3cccc(C(=O)NCCN(C)C)c3)cnc2N)cn1 [Y-008, 3-(2-Amino-6′-methoxy-[3,3′]bipyridinyl-5-yl)-N-(2-dimethylamino-ethyl)-benzamide]	1000 to 10000
CN(C)CCNC(=O)c1cccc(-c2cnc(N)c(-c3ccc4c(c3)OCO4)c2)c1 [Y-010, 3-(6-Amino-5-benzo[1,3]dioxol-5-yl-pyridin-3-yl)-N-(2-dimethylamino-ethyl)-benzamide]	< 1000

— patent US20110098325A1, “PYRIDINE BENZAMIDES AND PYRAZINE BENZAMIDES USED AS PKD INHIBITORS” (CANCER RESEARCH TECHNOLOGY LIMITED, priority 2006, published 2011)
